From patent US9487489B2, “Halogen-substituted pyrazole derivatives as pest-control agents” (BAYER CROPSCIENCE AKTIENGESELLSCHAFT, priority 2013, dated 2016)

Tests used:
[1] = test system: adult houseflies (Musca domestica); experiment: Musca domestica test (MUSCDO); format: in vivo; details: application rate 100 ppm; after 2 days
Method in brief: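 Groups of 10 adult Musca domestica exposed to a sugar-soaked sponge treated with the water-diluted DMSO preparation of compound at the chosen concentration. Percent kill read at day 2, where 0% means no flies killed and 100% all killed.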

[2] = logP determination by HPLC on a reversed-phase column (C18), EEC Directive 79/831 Annex V.A8; format: physicochemical
Method in brief: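 Per EEC 79/831 Annex V.A8, values derive from HPLC retention at 2.0 ml/min and 55° C on a 50*4.6 C18 column. The 10→95% acetonitrile gradient (0.1%/0.09% formic acid) lasted 4.25 min plus a 1.25 min hold; mass detection was by MSD.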

[3] = test system: cattle ticks (Boophilus microplus) Parkhurst strain, SP-resistant; experiment: Boophilus microplus dip test (BOOPMI Dip); format: in vivo; details: application rate 100 ppm, assessed after 7 days
Method in brief: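 Adult engorged female SP-resistant Parkhurst ticks (8–10) were fully immersed in compound diluted in water from a DMSO solution, then kept in a climate-controlled room. After 7 days, fertile egg-laying was scored, with larval hatching checked at about 42 days; 100% efficacy means no fertile eggs.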

[4] = test system: adult cat fleas (Ctenocephalides felis); experiment: Ctenocephalides felis in vitro contact test with adult cat fleas (T1); details: after 48 h
Method in brief: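 Adult cat fleas (Ctenocephalides felis), 5-10 per tube, were exposed to the inner surface of 25 ml test tubes coated with compound in acetone. Tubes were incubated lying flat under ambient conditions. Efficacy was then read by standing tubes upright and knocking the fleas to the floor. Fleas that stayed motionless or moved uncoordinatedly counted as dead or moribund, where 100% means all fleas dead or moribund and 0% means none harmed.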

[5] = test system: greenhouse red spider mite (Tetranychus urticae); experiment: Tetranychus urticae spray test, OP-resistant (TETRUR); format: in vivo; details: bean leaf discs, after 6 days
Method in brief: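 Percent kill, scored 6 days post-spray (0% = none dead, 100% = all dead), on Phaseolus vulgaris leaf discs infested with every life stage of the OP-resistant spider mite. Compound dissolved in acetone plus DMF, diluted to test concentration with emulsifier-containing water (1000 ppm).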

[6] = test system: caterpillars of the armyworm (Spodoptera frugiperda); experiment: Spodoptera frugiperda spray test (SPODFR); format: in vivo; details: maize leaf discs, after 7 days
Method in brief: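 Percent kill read at day 7 on caterpillar-infested maize leaf discs. Discs were first sprayed with aqueous emulsifier-containing (1000 ppm) preparations made from acetone/dimethylformamide solutions, and dried. Scale: 0% none dead, 100% all dead.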

[7] = test system: adult castor bean ticks (Ixodes ricinus); experiment: Ixodes ricinus in vitro contact test with adult castor bean ticks (T3); details: after 48 h
Method in brief: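 Test compound was dissolved in acetone p.a. (9 mg in 1 ml) and diluted with acetone; 250 μl were spread evenly over the inner walls and floor of 25 ml test tubes by rocking on an orbital shaker (2 h, 30 rpm). Once the solvent evaporated, 5-10 adult Ixodes ricinus ticks were added, tubes closed with perforated lids and kept horizontally in darkness at 22° C. and 90% humidity. After 48 h, ticks were placed on a 45-50° C. hotplate for up to 5 min; those motionless or unable to climb away were scored dead or moribund.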

[8] = HPLC on reversed-phase column (C18), acetonitrile/water with formic acid, EEC Directive 79/831 Annex V.A8
[9] = HPLC, reversed-phase C18, acetonitrile (0.1% formic acid)/water (0.09% formic acid) gradient

| Structure (SMILES) | efficacy (kill in %) [1] | logP [2, 8] | efficacy (laying of fertile eggs) [3] | efficacy (dead or moribund fleas) ([4]; application rate 1 μg/cm^2) | efficacy (dead or moribund fleas) ([4]; application rate 5 μg/cm^2) | efficacy in % ([5]; application rate 500 g/ha) | efficacy in % ([6]; application rate 500 g/ha) | efficacy in % ([5]; application rate 100 g/ha) | efficacy in % ([6]; application rate 100 g/ha) | efficacy (dead or moribund ticks) ([7]; application rate 1 μg/cm^2) | efficacy (dead or moribund ticks) ([7]; application rate 5 μg/cm^2) | logP [2, 9] | chromatographic logP [2] |
| --- | --- | --- | --- | --- | --- | --- | --- | --- | --- | --- | --- | --- | --- |
| Cn1nc(C(F)(F)C(F)(F)F)c(C(F)(F)F)c1-n1cc(-c2cc(F)c(Cl)c(C(=O)NC3CC3)c2)cn1 [Ic-24] | 100% | 3.90 | 100% | 100% | 100% | 100% | 100% |  |  |  |  |  |  |
| Cn1nc(C(F)(F)C(F)(F)F)c(C(F)(F)F)c1-n1cc(-c2cc(F)c(Cl)c(C(=O)NC3(C#N)CC3)c2)cn1 [Ic-27] | 100% | 3.87 | 100% | 100% | 100% | 100% | 100% |  |  |  |  |  |  |
| Cn1nc(C(F)(F)C(F)(F)F)c(C(F)(F)F)c1-n1cc(-c2ccc(Cl)c(C(=O)NCC(F)F)c2)cn1 [Ic-78] | 100% | 3.86 | 100% | 100% | 100% |  |  | 100% | 100% |  |  |  |  |
| Cc1ncc(-c2cnn(-c3c(C(F)(F)F)c(C(F)(F)C(F)(F)F)nn3C)c2)cc1C(=O)NC1CC1 [Ic-84] | 100% |  | 100% | 100% | 100% | 100% | 100% |  |  | 100% | 100% |  |  |
| Cn1nc(C(F)(F)C(F)(F)F)c(C(F)(F)F)c1-n1cnc(-c2ccc(Cl)c(C(=O)NC3CC3)c2)c1 [Ib-3] | 100% |  | 100% | 100% | 100% |  |  | 100% | 100% | 80% | 80% | 3.43 |  |
| Cn1nc(C(F)(F)C(F)(F)F)c(C(F)(F)F)c1-n1cc(-c2ccc(F)c(C(=O)NC3(C#N)CC3)c2)cn1 [Ic-36] | 100% | 3.69 | 100% | 100% | 100% |  |  | 100% | 100% |  |  |  |  |
| Cn1nc(C(F)(F)C(F)(F)F)c(C(F)(F)F)c1-n1cc(-c2ccc([N+](=O)[O-])c(C(=O)NC3CC3)c2)cn1 [Ic-66] | 100% | 3.53 | 100% | 100% | 100% |  |  | 100% | 100% |  |  |  |  |
| Cn1nc(C(F)(F)C(F)(F)F)c(C(F)(F)F)c1-n1ccc(-c2ccc(Cl)c(C(=O)NC3(C#N)CC3)c2)c1 [Ia-1] | 80% |  | 100% | 100% | 100% |  |  | 100% | 100% | 100% | 100% | 3.99 |  |
| Cn1nc(C(F)(F)C(F)(F)F)c(C(F)(F)F)c1-n1cc(-c2ccc(Cl)c(C(=O)NC3(C#N)CC3)c2)cn1 [Ic-2] | 100% | 3.72 | 100% | 100% | 100% |  |  | 100% | 100% | 100% | 100% |  |  |
| Cn1nc(C(F)(F)C(F)(F)F)c(C(F)(F)F)c1-n1ccc(-c2ccc(Cl)c(C(=O)NC3CC3)c2)c1 [Ia-2] | 90% |  | 100% | 100% | 100% |  |  | 90% | 100% | 100% | 100% | 4.08 |  |
| Cn1nc(C(F)(F)C(F)(F)F)c(C(F)(F)F)c1-n1cc(-c2ccc(Cl)c(C(=O)NC3CC3)c2)cn1 [Ic-1, 2-Chloro-N-cyclopropyl-5-[2′-methyl-5′-(pentafluoroethyl)-4′-(trifluoromethyl)-2′H-1,3′-bipyrazol-4-yl]benzamide] | 100% |  | 100% | 100% | 100% | 100% | 100% |  |  | 100% | 100% |  | 3.79 |
| Cn1nc(C(F)(F)C(F)(F)F)c(C(F)(F)F)c1-n1cc(-c2cc(Cl)c(Cl)c(C(=O)NC3CC3)c2)cn1 [Ic-94] | 100% |  | 100% | 100% | 100% | 100% | 100% |  |  | 100% | 100% |  |  |
| Cn1nc(C(F)(F)C(F)(F)F)c(C(F)(F)F)c1-n1cc(-c2ccc(Cl)c(C(=O)NCC(F)(F)F)c2)cn1 [Ic-23] | 100% | 4.17 | 100% | 100% | 100% |  |  | 100% | 100% | 100% | 100% |  |  |
| Cn1nc(C(F)(F)C(F)(F)F)c(C(F)(F)F)c1-n1cc(-c2ccc(Cl)c(C(=O)NC3CC3F)c2)cn1 (stereo not shown) [Ic-81] | 100% | 3.8 | 100% | 100% | 100% |  |  | 100% | 100% | 100% | 100% |  |  |
| CCn1nc(C(F)(F)C(F)(F)F)c(C(F)(F)F)c1-n1cc(-c2ccc(Cl)c(C(=O)NC3CC3)c2)cn1 [Ic-16] | 100% | 4.14 | 100% | 100% | 100% |  |  |  | 100% | 100% | 100% |  |  |
| Cn1nc(C(F)(F)C(F)(F)F)c(C(F)(F)F)c1-n1cc(-c2ccc(F)c(C(=O)NC3CC3)c2)cn1 [Ic-37] | 100% | 3.79 | 100% | 100% | 100% |  |  | 100% | 100% | 100% | 100% |  |  |
| CN(C(=O)c1cc(-c2cnn(-c3c(C(F)(F)F)c(C(F)(F)C(F)(F)F)nn3C)c2)ccc1Cl)C1(C#N)CC1 [Ic-96] | 100% | 4.1 | 100% | 100% | 100% |  |  | 100% | 100% |  |  |  |  |
| Cn1nc(C(F)(F)C(F)(F)F)c(C(F)(F)F)c1-n1cc(-c2ccc(Cl)c(C(=O)NC3(C(N)=S)CC3)c2)cn1 [Ic-11] | 100% | 3.59 | 100% | 100% | 100% |  |  | 90% | 100% | 80% | 100% |  |  |
| Cn1nc(C(F)(F)C(F)(F)F)c(C(F)(F)F)c1-n1cc(-c2ccc(Br)c(C(=O)NC3(C#N)CC3)c2)cn1 [Ic-34] | 100% | 3.74 | 100% | 100% | 100% |  |  | 100% | 100% |  |  |  |  |
